Results from ChEMBL document CHEMBL6074717, “Advancing mitochondrial therapeutics: Synthesis and pharmacological evaluation of pyrazole-based inhibitors targeting the mitochondrial pyruvate carrier” (Eur J Med Chem, 2025).
Calls of active or inactive are those of the source. The calls are words filed in the database; no cut-off is given here.

Legend:
[1] = Inhibition of mitochondrial pyruvate carrier in C57BL/6J mouse cardiac mitochondria assessed as inhibition of pyruvate/malate-induced mitochondrial respiration by steady-state ADP coupled assay; set-up: species or system Heart
[2] = biological target: T1, Peroxisome proliferator-activated receptor gamma (Homo sapiens, UniProt P37231); assay: Agonist activity at Gal4-fused PPAR-gamma (unknown origin) transfected in mouse C2C12 cells assessed as decrease in luciferase activity at 10 uM measured after 24 hrs by Dual-Glo Luciferase assay; type: toxicity, cell-based; settings: c2c12, 24 h
T1 sequence (P37231 whole entry): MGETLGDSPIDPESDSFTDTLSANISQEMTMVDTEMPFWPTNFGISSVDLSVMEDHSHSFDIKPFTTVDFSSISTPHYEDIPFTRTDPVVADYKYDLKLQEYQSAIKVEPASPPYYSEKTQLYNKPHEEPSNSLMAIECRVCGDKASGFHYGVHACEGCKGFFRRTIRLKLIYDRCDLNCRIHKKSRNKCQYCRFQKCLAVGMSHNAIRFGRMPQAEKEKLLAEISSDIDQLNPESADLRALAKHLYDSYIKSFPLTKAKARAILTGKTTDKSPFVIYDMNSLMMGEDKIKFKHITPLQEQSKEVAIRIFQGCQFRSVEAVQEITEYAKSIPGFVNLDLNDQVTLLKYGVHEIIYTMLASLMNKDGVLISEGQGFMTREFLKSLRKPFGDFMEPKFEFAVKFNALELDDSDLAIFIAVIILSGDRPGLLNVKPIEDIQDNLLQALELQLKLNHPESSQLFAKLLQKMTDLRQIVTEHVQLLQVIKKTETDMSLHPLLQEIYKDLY

[3] = biological target: T1, Peroxisome proliferator-activated receptor gamma; assay: Agonist activity at Gal4-fused PPAR-gamma (unknown origin) transfected in mouse C2C12 cells assessed as decrease in luciferase activity at 0.2 to 20 uM measured after 24 hrs by Dual-Glo Luciferase assay; type: toxicity, cell-based; settings: c2c12, 24 h, dose 0.2-20 µM
[4] = Kinetic solubility of the compound in PBS at pH 7.4 measured after 24 hrs by LC-MS/MS analysis; type: physicochemical; settings: for solubility kinetic at 24 h: PBS, pH 7.4, read-out: Kinetic_solubility; for Kinetic_solubility: buffer, pH 7.4, 24 h
[5] = Half life in human liver microsomes at 1 uM in presence of NADPH by LC-MS/MS analysis; type: ADME, Microsome
[6] = Intrinsic clearance in human liver microsomes at 1 uM in presence of NADPH by LC-MS/MS analysis; type: ADME, Microsome
LX-2 [7] = assay: Inhibition of hepatic stellate cell activation in human LX-2 cells assessed as inhibition of TGF-beta-stimulated ACTA2 gene expression at 10 uM quantitative real-time PCR analysis; type: functional, cell-based
LX-2 [8] = assay: Inhibition of hepatic stellate cell activation in human LX-2 cells assessed as inhibition of TGF-beta-stimulated FN1 gene expression at 10 uM quantitative real-time PCR analysis; type: functional, cell-based
LX-2 [9] = assay: Inhibition of hepatic stellate cell activation in human LX-2 cells assessed as inhibition of TGF-beta-stimulated […] gene expression at 10 uM quantitative real-time PCR analysis; type: functional, cell-based

EC50 [1] [nM]	Compound	also measured
614	CCc1ccc(-c2n[nH]cc2/C=C(\C#N)C(=O)O)cc1	–
18300	CS(=O)(=O)c1ccc(-c2n[nH]cc2/C=C(\C#N)C(=O)O)cc1	–
919	N#C/C(=C\c1c[nH]nc1-c1ccc(-c2ccccc2)cc1)C(=O)O	–
344	N#C/C(=C\c1c[nH]nc1-c1ccc(Br)cc1)C(=O)O	–
4120	N#C/C(=C\c1c[nH]nc1-c1ccc([N+](=O)[O-])cc1)C(=O)O	–
796	N#C/C(=C\c1c[nH]nc1-c1ccccc1)C(=O)O	–
447	CC(C)(C)c1ccc(-c2n[nH]cc2/C=C(\C#N)C(=O)O)cc1	–
70	N#C/C(=C\c1c[nH]nc1-c1cc(Br)cc(Br)c1)C(=O)O	inhibition (LX-2 [7]): Active; Activity [3]: Not_active; Kinetic_solubility [4]: 22 µM; t1/2 [5]: 0.257 h; Intrinsic clearance [6]: 45 µL/min/mg
796	N#C/C(=C\c1c[nH]nc1-c1ccc(Cl)cc1)C(=O)O	–
550	Cc1cccc(-c2n[nH]cc2/C=C(\C#N)C(=O)O)c1	–
650	N#C/C(=C\c1c[nH]nc1-c1cccc(Cl)c1)C(=O)O	–
107	N#C/C(=C\c1c[nH]nc1-c1ccc(Cl)c(Cl)c1)C(=O)O	inhibition (LX-2 [7]): Active; inhibition (LX-2 [8]): Active; inhibition (LX-2 [9]): Active; Activity [3]: Not_active; solubility kinetic at 24 h [4]: ≥ 100 µM; t1/2 [5]: > 2 h; Intrinsic clearance [6]: 3 µL/min/mg
785	N#C/C(=C\c1c[nH]nc1-c1cccc(F)c1)C(=O)O	–
543	N#C/C(=C\c1c[nH]nc1-c1ccc(C(F)(F)F)cc1)C(=O)O	–
795	COc1ccc(-c2n[nH]cc2/C=C(\C#N)C(=O)O)cc1	–
927	COc1cccc(-c2n[nH]cc2/C=C(\C#N)C(=O)O)c1	–
212	N#C/C(=C\c1c[nH]nc1-c1ccc2ccccc2c1)C(=O)O	inhibition (LX-2 [7]): Active; inhibition (LX-2 [8]): Active; inhibition (LX-2 [9]): Active; Activity [3]: Not_active; solubility kinetic at 24 h [4]: ≥ 100 µM; t1/2 [5]: 1.15 h; Intrinsic clearance [6]: 10 µL/min/mg
568	COc1ccc(-c2n[nH]cc2/C=C(\C#N)C(=O)O)cc1F	–
651	N#C/C(=C\c1c[nH]nc1-c1ccc(F)cc1)C(=O)O	–
444	N#C/C(=C\c1c[nH]nc1-c1cccc(Br)c1)C(=O)O	Kinetic_solubility [4]: 0.2 µM; t1/2 [5]: > 2 h; Intrinsic clearance [6]: 3 µL/min/mg

Second part, the compound before the results:

Compound	EC50 [1] [nM]	also measured
COc1ccc(-c2n[nH]cc2/C=C(\C#N)C(=O)O)c(F)c1	659	–
N#C/C(=C\c1cn(-c2ccccc2)c2ccccc12)C(=O)O	241	–
CC(C)(C)OC(=O)/C(C#N)=C/c1c[nH]nc1-c1ccc(Cl)c(Cl)c1	8710	–
N#C/C(=C\c1c[nH]nc1-c1cc(C(F)(F)F)cc(C(F)(F)F)c1)C(=O)O	165	–
N#C/C(=C\c1c[nH]nc1-c1ccc2c(c1)OCO2)C(=O)O	435	–
CN(CCOc1ccc(CC2SC(=O)NC2=O)cc1)c1ccccn1 (stereo not given) [ROSIGLITAZONE]	–	Activity [2]: Active
N#C/C(=C\c1c[nH]nc1-c1cccc(C(F)(F)F)c1)C(=O)O	108	Activity [3]: Not_active; solubility kinetic at 24 h [4]: ≥ 100 µM; t1/2 [5]: > 2 h; Intrinsic clearance [6]: 3 µL/min/mg
N#C/C(=C\c1c[nH]nc1-c1cccnc1)C(=O)O	7770	–
CC(C)(C)OC(=O)/C(C#N)=C/c1c[nH]nc1-c1cccc(C(F)(F)F)c1	12000	Kinetic_solubility [4]: 24.4 µM; t1/2 [5]: > 2 h; Intrinsic clearance [6]: 2 µL/min/mg
N#C/C(=C\c1cn(-c2ccccc2)nc1-c1ccc2ccccc2c1)C(=O)O	789	–
N#C/C(=C\c1cn(-c2ccccc2)nc1-c1ccc(Cl)c(Cl)c1)C(=O)O	369	–
N#C/C(=C\c1c[nH]nc1-c1cc2ccccc2s1)C(=O)O	552	–
N#C/C(=C\c1c[nH]nc1-c1cccc2ccccc12)C(=O)O	273	–
N#C/C(=C\c1cn(Cc2ccccc2)nc1-c1ccc(Cl)c(Cl)c1)C(=O)O	722	–
N#C/C(=C\c1cn(-c2ccccc2)nc1-c1cccc2ccccc12)C(=O)O	707	–
N#C/C(=C\c1c[nH]nc1-c1ccccc1C(F)(F)F)C(=O)O	258	–
N#C/C(=C\c1cn(Cc2ccccc2)nc1-c1ccc2ccccc2c1)C(=O)O	1290	–
N#C/C(=C\c1c[nH]nc1-c1ccccc1F)C(=O)O	791	–
N#C/C(=C\c1c[nH]nc1-c1ccccc1Cl)C(=O)O	516	–
CCn1cc(/C=C(\C#N)C(=O)O)c(-c2ccc(Cl)c(Cl)c2)n1	390	–
Cc1ccccc1-c1n[nH]cc1/C=C(\C#N)C(=O)O	659	–
CCOC(=O)/C(C#N)=C/c1c[nH]nc1-c1ccc(Cl)c(Cl)c1	3890	Kinetic_solubility [4]: 4.8 µM; t1/2 [5]: 0.03 h; Intrinsic clearance [6]: 377 µL/min/mg
N#C/C(=C\c1c[nH]nc1-c1ccc(F)c([N+](=O)[O-])c1)C(=O)O	810	–
N#C/C(=C\c1c[nH]nc1-c1cccs1)C(=O)O	374	–
COc1ccc(-c2n[nH]cc2/C=C(\C#N)C(=O)O)cc1OC	808	–
N#C/C(=C\c1c[nH]nc1-c1cc(Cl)ccc1Cl)C(=O)O	504	–
COc1ccccc1-c1n[nH]cc1/C=C(\C#N)C(=O)O	568	–
N#C/C(=C\c1c[nH]nc1-c1ccc(Cl)cc1Cl)C(=O)O	1080	–
